The record followed here is patent publication US8906929B2, “Inhibitors of human immunodeficiency virus replication” (priority 2012, dated 2014).

For series [1] the following is noted: rcm bond, DCE.
The conditions of series [2]: rcm bond, Hoveyda-Grubbs II, DCE.

Read-outs that look alike come from different tables or passages of the source.

As for `COC(=O)[C@@H](OC(C)(C)C)c1c(C)nc2cc3nn2c1-c1cc(F)c2c(c1)N(CC=CCCc1ccccc1-c1cccc-3c1)CCO2`, in series [1] (from C=CCCc1ccccc1-c1cccc(-c2cc3nc(C)c([C@H](OC(C)(C)C)C(=O)OC)c(-c4cc(F)c5c(c4)N(CC=C)CCO5)n3n2)c1, 18-membered ring, Hoveyda-Grubbs II, 8.3 mM, 70.0 °C, 18.0 h), the ring closure, isolated yield came out at 54.5%.

Turning to `COC(=O)[C@@H](OC(C)(C)C)c1c(C)nc2cc3nn2c1-c1ccc2c(c1)C(CC=CCOc1ccccc1-c1cccc-3c1)CCO2` (stereo partly shown), the ring closure, isolated yield in series [1] (from C=CCOc1ccccc1-c1cccc(-c2cc3nc(C)c([C@H](OC(C)(C)C)C(=O)OC)c(-c4ccc5c(c4)C(CC=C)CCO5)n3n2)c1, 18-membered ring, Hoveyda-Grubbs II, 2.06 mM, 70.0 °C, 3.0 h) was 84%. For the compound `COC(=O)[C@@H](OC(C)(C)C)c1c(C)nc2cc3nn2c1-c1ccc2c(c1Cl)N(CC=CCCCOc1ccccc1-c1cccc-3c1)CCO2`, the ring closure, isolated yield in series [1] (from C=CCCCOc1ccccc1-c1cccc(-c2cc3nc(C)c([C@H](OC(C)(C)C)C(=O)OC)c(-c4ccc5c(c4Cl)N(CC=C)CCO5)n3n2)c1, 20-membered ring, Hoveyda-Grubbs II, 27.0 mM, 50.0 °C, 3.0 h) came out at 53.4%. In the case of `COC(=O)[C@@H](OC(C)(C)C)c1c(C)nc2cc3nn2c1-c1ccc2c(c1Cl)N(CC=CCCc1ccccc1-c1cccc-3c1)CCO2`, the ring closure, isolated yield in series [1] (from C=CCCc1ccccc1-c1cccc(-c2cc3nc(C)c([C@H](OC(C)(C)C)C(=O)OC)c(-c4ccc5c(c4Cl)N(CC=C)CCO5)n3n2)c1, 18-membered ring, Hoveyda-Grubbs II, 70.0 °C, 4.0 h) came out at 73%. In series [2] (from C=CCCc1ccccc1-c1cccc(-c2cc3nc(C)c([C@H](OC(C)(C)C)C(=O)OC)c(-c4ccc5c(c4Cl)N(CC=C)CCO5)n3n2)c1, 18-membered ring, 28.0 mM, 50.0 °C, 1.0 h), this compound had a ring closure, yield after HPLC of 26.5%. Regarding `COC(=O)[C@@H](OC(C)(C)C)c1c(C)nc2cc3nn2c1-c1ccc2c(c1Cl)N(CC=CCOc1cccc(c1)-c1cccc-3c1)CCO2`, in series [2] (from C=CCOc1cccc(-c2cccc(-c3cc4nc(C)c([C@H](OC(C)(C)C)C(=O)OC)c(-c5ccc6c(c5Cl)N(CC=C)CCO6)n4n3)c2)c1, 19-membered ring, then NaOH, 29.0 mM, 50.0 °C, 5.0 h, 2 steps), the ring closure, yield after HPLC came out at 26.6%. Take `COC(=O)[C@@H](OC(C)(C)C)c1c(C)nc2cc3nn2c1N1CCC(C)(CC1)COCC=CCCc1ccccc1-c1cccc-3c1`: in series [1] (from C=CCCc1ccccc1-c1cccc(-c2cc3nc(C)c([C@H](OC(C)(C)C)C(=O)OC)c(N4CCC(C)(COCC=C)CC4)n3n2)c1, 20-membered ring, Hoveyda-Grubbs II (10 mol%), 1.23 mM, 70.0 °C, 3.0 h), the ring closure, isolated yield is 98%. The compound `COC(=O)[C@@H](OC(C)(C)C)c1c(C)nc2cc3nn2c1N1CCC(C)(CC1)OCC=CC(C)Oc1ccccc1-c1cccc-3c1` (stereo partly shown) showed a ring closure, yield after HPLC in series [2] (from C=CCOC1(C)CCN(c2c([C@H](OC(C)(C)C)C(=O)OC)c(C)nc3cc(-c4cccc(-c5ccccc5OC(C)C=C)c4)nn23)CC1, 19-membered ring, 1.28 mM, 2.0 h) of 98%. Consider `COC(=O)[C@@H](OC(C)(C)C)c1c(C)nc2cc3nn2c1N1CCC(C)(CC1)OCC=CC[C@@H](C)Oc1ccccc1-c1cccc-3c1`, for which the ring closure, isolated yield in series [1] (from C=CCOC1(C)CCN(c2c([C@H](OC(C)(C)C)C(=O)OC)c(C)nc3cc(-c4cccc(-c5ccccc5O[C@H](C)CC=C)c4)nn23)CC1, 20-membered ring, Hoveyda-Grubbs II, 1.43 mM, 2.0 h) was found to be 100%.

`COC(=O)[C@@H](OC(C)(C)C)c1c(C)nc2cc3nn2c1N1CCC(C)(CC1)OCC=CC[C@H](C)Oc1ccc(F)cc1-c1cccc-3c1`: the ring closure, isolated yield in series [1] (from C=CCOC1(C)CCN(c2c([C@H](OC(C)(C)C)C(=O)OC)c(C)nc3cc(-c4cccc(-c5cc(F)ccc5O[C@@H](C)CC=C)c4)nn23)CC1, 20-membered ring, Hoveyda-Grubbs II (20 mol%), then NaBH4/MeOH, 5.0 mM, 80.0 °C, 1.5 h, 2 steps) was found to be 38%. `COC(=O)[C@@H](OC(C)(C)C)c1c(C)nc2cc3nn2c1N1CCC(C)(CC1)OCC=CC[C@H](C)Oc1ccccc1-c1cccc-3c1`: the ring closure, isolated yield in series [1] (from C=CCOC1(C)CCN(c2c([C@H](OC(C)(C)C)C(=O)OC)c(C)nc3cc(-c4cccc(-c5ccccc5O[C@@H](C)CC=C)c4)nn23)CC1, 20-membered ring, Hoveyda-Grubbs II, 1.5 mM, 2.0 h) turned out to be 70%. As to “Methyl (2S)-2-(tert-butoxy)-2-[(23E)-4,27-dimethyl-21,26-dioxa-1,5,7,8-tetraazahexacyclo[25.2.2.1^6,^9.1^10,^14.0^2,^7.0^15,^20]tritriaconta-2,4,6(33),8,10(32),11,13,15(20),16,18,23-undecaen-3-yl]acetate”, the ring closure, isolated yield in series [1] (19-membered ring, Hoveyda-Grubbs II, 1.3 mM) was 100%. Compound “Methyl (2S)-2-(tert-butoxy)-2-[(24E/Z)-4,17,23,28-tetramethyl-21,27-dioxa-1,5,7,8-tetraazahexacyclo[26.2.2.1^6,^9.1^10,^14.0^2,^7.0^15,^20]tetratriaconta-2,4,6(34),8,10(33), 11,13,15 (20),16,18,24-undecaen-3-yl]acetate” returned a ring closure, isolated yield in series [1] (20-membered ring, Hoveyda-Grubbs II (7 mol%), 4.0 mM, 85.0 °C) of 70.6%.
